Source: ChEMBL document CHEMBL1201862, “PubChem BioAssay data set” (2004)
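These data come from cells grown in 96-well plates and exposed to compound for 48 hours at five concentrations. GI50 = concentration required for 50% inhibition of growth.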 Active and inactive are the calls of the source. Rule as the data show it: active = GI50 up to about 1.1 µM and inactive = higher.

Columns and labels:
Assay in all cases: NCI-60 cell line screen, 48 h
RPMI-8226 = test system: RPMI-8226
HCC 2998 = test system: HCC 2998
U-251 = test system: U-251
LOX IMVI = test system: LOX IMVI
CCRF-CEM = test system: CCRF-CEM
SW-620 = test system: SW-620
SF-539 = test system: SF-539
786-0 = test system: 786-0
TK-10 = test system: TK-10
NCI-H23 = test system: NCI-H23
UACC-62 = test system: UACC-62
NCI-H522 = test system: NCI-H522
HT-29 = test system: HT-29
Malme-3M = test system: Malme-3M
SR = test system: SR
KM-20L2 = test system: KM-20L2
BT-549 = test system: BT-549
MDA-MB-435 = test system: MDA-MB-435
NCI/ADR-RES = test system: NCI/ADR-RES
MDA-N = test system: MDA-N

Measured: GI50

O=C(CC(=O)n1nc(-c2ccccc2)c(/N=N/c2ccc([N+](=O)[O-])cc2)c1-c1ccccc1)Nc1ccc(Cl)cc1
inactive: RPMI-8226 30.2 µM | HCC 2998 20.8 µM | U-251 18.9 µM | LOX IMVI 30.2 µM | CCRF-CEM 15.6 µM | SW-620 21.6 µM | SF-539 21.5 µM | 786-0 34.8 µM | TK-10 22.6 µM | NCI-H23 27.2 µM | UACC-62 2.56 µM | NCI-H522 23.2 µM | HT-29 12.5 µM | Malme-3M 19 µM | SR 22.4 µM | KM-20L2 3.25 µM

COc1cccc2c1C(=O)C=CC2=O
inactive: RPMI-8226 2.1 µM | HCC 2998 15.3 µM | U-251 6.81 µM | BT-549 15.5 µM | MDA-MB-435 10.1 µM | SW-620 6.18 µM | SF-539 16.1 µM | 786-0 11.5 µM | TK-10 14.2 µM | NCI-H23 14.8 µM | UACC-62 10.9 µM | NCI-H522 2.39 µM | HT-29 11 µM | Malme-3M 15.5 µM | KM-20L2 16.7 µM
active: CCRF-CEM 0.281 µM | SR 0.269 µM

C[N+](C)(C)CCc1ccccc1
inactive: RPMI-8226 > 100 µM | HCC 2998 > 100 µM | U-251 > 100 µM | LOX IMVI > 100 µM | CCRF-CEM > 100 µM | SW-620 > 100 µM | SF-539 > 100 µM | 786-0 > 100 µM | TK-10 > 100 µM | NCI-H23 > 100 µM | UACC-62 > 100 µM | NCI-H522 > 100 µM | HT-29 > 100 µM | Malme-3M > 100 µM | SR > 100 µM | KM-20L2 > 100 µM

CN(C)/N=N/c1ccccc1
inactive: RPMI-8226 > 100 µM | HCC 2998 38.1 µM | U-251 > 100 µM | CCRF-CEM 22 µM | SW-620 > 100 µM | SF-539 > 100 µM | 786-0 > 100 µM | TK-10 > 100 µM | NCI-H23 > 100 µM | NCI-H522 21.7 µM | HT-29 > 100 µM | Malme-3M > 100 µM | SR > 100 µM | KM-20L2 42.3 µM

COc1cc2c(cc1C)[n+]([O-])c(C)c(C(=O)C/C(=N/NC(=O)C[N+](C)(C)C)C(=O)Nc1cccc(Cl)c1C)[n+]2[O-]
inactive: RPMI-8226 > 100 µM | HCC 2998 > 100 µM | U-251 > 100 µM | LOX IMVI > 100 µM | CCRF-CEM 49.9 µM | SW-620 > 100 µM | SF-539 > 100 µM | 786-0 > 100 µM | TK-10 > 100 µM | NCI-H23 > 100 µM | UACC-62 > 100 µM | NCI-H522 > 100 µM | HT-29 > 100 µM | Malme-3M > 100 µM | SR > 100 µM | KM-20L2 > 100 µM

C(=C\c1c2oc(-c3ccccc3)cc(-c3ccccc3)c-2c2ccccc12)/C=C1\c2ccccc2-c2c(-c3ccccc3)cc(-c3ccccc3)[o+]c21.[O-][Cl+3]([O-])([O-])[O-]
inactive: RPMI-8226 > 100 µM | HCC 2998 > 100 µM | U-251 > 100 µM | LOX IMVI > 100 µM | CCRF-CEM > 100 µM | SW-620 > 100 µM | SF-539 > 100 µM | 786-0 > 100 µM | TK-10 > 100 µM | NCI-H23 > 100 µM | UACC-62 > 100 µM | NCI-H522 > 100 µM | HT-29 > 100 µM | Malme-3M > 100 µM | SR > 100 µM | KM-20L2 > 100 µM

COc1c(Cl)c(Cl)c(OC)c2c1C(=O)C=CC2=O
inactive: RPMI-8226 18.2 µM | HCC 2998 60.3 µM | U-251 20.7 µM | LOX IMVI 15.9 µM | CCRF-CEM 3.83 µM | SW-620 16.8 µM | SF-539 20 µM | 786-0 17.1 µM | TK-10 20.2 µM | NCI-H23 40.4 µM | UACC-62 15.6 µM | NCI-H522 17.6 µM | HT-29 29.9 µM | Malme-3M 15.1 µM | SR 10.4 µM | KM-20L2 68.2 µM

O=C(Cc1ccc(F)cc1)NC1=C(Cl)C(=O)c2ccccc2C1=O
inactive: HCC 2998 4.22 µM | U-251 3.07 µM | LOX IMVI 2.95 µM | CCRF-CEM 1.71 µM | SW-620 2.24 µM | SF-539 2.24 µM | 786-0 6.58 µM | TK-10 6.9 µM | NCI-H23 1.67 µM | UACC-62 2.53 µM | HT-29 17.3 µM | Malme-3M 2.77 µM | KM-20L2 17.7 µM
active: RPMI-8226 0.262 µM | NCI-H522 0.297 µM | SR 0.481 µM

CC[C@@]1(O)C(=O)OCc2c1cc1n(c2=O)Cc2cc3ccccc3nc2-1 [CAMPTOTHECIN]
inactive: TK-10 1.32 µM
active: RPMI-8226 0.0336 µM | HCC 2998 0.159 µM | U-251 0.0111 µM | LOX IMVI 0.0261 µM | BT-549 0.115 µM | MDA-MB-435 0.0658 µM | CCRF-CEM < 0.01 µM | SW-620 0.0366 µM | SF-539 0.0145 µM | 786-0 < 0.0214 µM | NCI-H23 0.0194 µM | UACC-62 < 0.0106 µM | NCI-H522 0.0223 µM | HT-29 0.0449 µM | Malme-3M 0.174 µM | SR < 0.01 µM | KM-20L2 0.0776 µM | NCI/ADR-RES 0.012 µM | MDA-N 0.145 µM

Cc1ccc([S+](c2ccccc2)c2cc(C)ccc2C)cc1.O=C(OC(C(=O)[O-])C(OC(=O)c1ccccc1)C(=O)O)c1ccccc1 (stereo not given)
inactive: RPMI-8226 2 µM | HCC 2998 7.46 µM | U-251 5.37 µM | LOX IMVI 6.85 µM | BT-549 3.37 µM | MDA-MB-435 5.3 µM | CCRF-CEM 12.8 µM | SW-620 7.89 µM | SF-539 29 µM | 786-0 26.2 µM | TK-10 18.2 µM | NCI-H23 3.82 µM | UACC-62 12.2 µM | NCI-H522 3.55 µM | HT-29 7.69 µM | Malme-3M 44.9 µM | SR 1.85 µM | KM-20L2 7.73 µM | NCI/ADR-RES > 100 µM | MDA-N 3.89 µM

C=C/C=C(\NC(=O)C(Cl)(Cl)Cl)[Si](C)(C)C
inactive: RPMI-8226 > 100 µM | HCC 2998 > 100 µM | U-251 > 100 µM | LOX IMVI > 100 µM | CCRF-CEM > 100 µM | SW-620 > 100 µM | SF-539 > 100 µM | 786-0 > 100 µM | TK-10 > 100 µM | NCI-H23 > 100 µM | UACC-62 > 100 µM | NCI-H522 > 100 µM | HT-29 > 100 µM | Malme-3M > 100 µM | SR > 100 µM | KM-20L2 > 100 µM

COC(=O)C1C=CCON2CCc3c(n(S(=O)(=O)c4ccccc4)c4ccccc34)C12 (stereo not given)
inactive: RPMI-8226 14.5 µM | HCC 2998 51.5 µM | U-251 25.2 µM | LOX IMVI 33.3 µM | CCRF-CEM 32.5 µM | SW-620 14.8 µM | SF-539 > 12.8 µM | 786-0 > 87.1 µM | TK-10 > 78.3 µM | NCI-H23 > 90.4 µM | UACC-62 > 49.4 µM | NCI-H522 26.9 µM | HT-29 43.4 µM | Malme-3M > 64.7 µM | SR 34.1 µM | KM-20L2 42.1 µM

C[N+](C)(C)CC(=O)N/N=C(/C(=O)Nc1ccc(Br)cc1)C1C(=O)NC(=O)NC1=O
inactive: RPMI-8226 > 100 µM | HCC 2998 > 100 µM | U-251 > 100 µM | LOX IMVI > 100 µM | CCRF-CEM > 100 µM | SW-620 > 100 µM | SF-539 > 100 µM | 786-0 > 100 µM | TK-10 > 100 µM | NCI-H23 > 100 µM | UACC-62 > 100 µM | NCI-H522 > 100 µM | HT-29 > 100 µM | Malme-3M > 100 µM | SR > 100 µM | KM-20L2 > 100 µM

CN(C)C(=S)SN(C)C(=O)Nc1ccccc1
active: CCRF-CEM 0.993 µM | NCI-H522 0.128 µM
inactive: RPMI-8226 15.7 µM | HCC 2998 17.3 µM | U-251 18 µM | LOX IMVI 8.26 µM | BT-549 > 41.2 µM | MDA-MB-435 19.7 µM | SW-620 7.28 µM | SF-539 34.1 µM | 786-0 6.62 µM | TK-10 > 96.2 µM | NCI-H23 7.4 µM | UACC-62 3.62 µM | HT-29 1.69 µM | Malme-3M 16.7 µM | SR 5.43 µM | KM-20L2 > 49.2 µM | NCI/ADR-RES 3.2 µM | MDA-N 9.53 µM

O=C1/C(=C/c2ccc(Cl)cc2)CCC1CNc1ccc(Cl)cc1 (stereo not given)
inactive: HCC 2998 6.01 µM | U-251 9.71 µM | BT-549 24.3 µM | MDA-MB-435 15.1 µM | SW-620 2.03 µM | SF-539 7.76 µM | 786-0 2.26 µM | TK-10 5.11 µM | NCI-H23 10.3 µM | NCI-H522 1.8 µM | HT-29 3.67 µM | Malme-3M 18 µM | SR 2.23 µM | KM-20L2 1.46 µM | NCI/ADR-RES 26.2 µM | MDA-N 11.8 µM
active: RPMI-8226 0.78 µM | LOX IMVI 0.673 µM | CCRF-CEM 0.828 µM | UACC-62 0.41 µM
